From patent publication US6461997B1, “Triazole sulfones having herbicidal activity” (Monsanto Technology LLC, priority 1999, dated 2002)

Legend:
wheat (TRZAW) = assay: Selectivity test, PPI, cool season crop; format: in vivo, Triticum aestivum; details: PPI application
Description: (§1) A pre-prepared topsoil mixture (described above) was placed in a pot and compacted to a depth of 1.0 to 1.25 cm from the top of the pot. Seeds of each of several monocotyledonous and dicotyledonous annual plant species were placed on top of the soil. A sufficient quantity of soil to cover the seeds and level fill the pot was weighed into an open container. A known amount of the test compound was dissolved or suspended in an organic solvent and applied by spraying to this cover soil. The cover soil was thoroughly mixed to distribute the test compound throughout the cover soil, and was then applied as a cover layer over the seeds. Untreated soil was used as a cover layer for control pots. After treatment the plants were placed in a greenhouse where they received 0.64 cm of overhead irrigation. All subsequent watering consisted of a light overhead mist and/or subirrigation as needed for germination and growth. Tables 9 and 10 below relate to warm season plant species which were placed after pre-emergence treatment in a greenhouse with a 30/21° C. day/night temperature regime. Tables 11 and 12 below relates to cool season plant species placed after pre-emergence treatment in a greenhouse or growth chamber with an 18/13° C. day/night temperature regime. Only the compounds of Examples 1, 6, 8, 11, 13 and 15-20 were included in PPI tests.
(§2) Approximately 14 days after planting and treating, the plants were observed and herbicidal efficacy recorded as percent inhibition by comparison with untreated plants.
Additional pre-emergence and PPI tests were conducted by the procedures described above, on warm and cool season weed species in the presence of crop species, to assess herbicidal selectivity. Crop species included in warm season tests were corn (Zea mays, ZEAMX), rice (Oryza sativa, ORYSA) and soybean (Glycine max, GLYMX). Crop species included in cool season tests were wheat (Triticum aestivum, TRZAW), barley (Hordeunm vulgare, HORVX) and oilseed rape (Brassica napus, BRSNS).
Tables 15 and 16 relate to pre-emergence and PPI tests respectively on warm season species. Table 17 relates to pre-emergence tests on cool season species.

[1] = system: AGSST (creeping bentgrass); assay: Pre-plant incorporated (PPI) herbicidal activity, cool season; format: in vivo, Agrostis stolonifera; details: for Percent inhibition AGSST: weed, PPI application
Description: (§3) In another set of tests, the pre-plant incorporated (PPI) activity of compounds of this invention was evaluated on the same species as for the pre-emergence tests described above. In the PPI tests the following procedure, designed to simulate PPI application, was used.
as §1, §2

[2] = system: PANMI (wild proso millet); assay: Pre-plant incorporated (PPI) herbicidal activity, warm season; format: in vivo, Panicum miliaceum; details: for Percent inhibition PANMI: PPI application
Description: as §3, §1, §2

[3] = system: CHEAL (common lambsquarters); assay: as above; format: in vivo, Chenopodium album; details: for Percent inhibition CHEAL: PPI application
Description: as §3, §1, §2

SETFA (giant foxtail) = assay: as above; format: in vivo, Setaria faberi; details: for Percent inhibition SETFA: PPI application
Description: as §3, §1, §2

ALOMY (blackgrass) = assay: Pre-emergence herbicidal activity, cool season; format: in vivo, Alopecurus myosuroides; details: GR80 = lowest tested rate (300, 100, 30, 10 g/ha) with 80% or greater inhibition; approx. 14 days after treating; 18/13° C.
Method in brief: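 Activity is expressed as the rate giving 80% inhibition, with 300, 100, 30 and 10 g/ha typically tested. An asterisk marks activity short of 80% at the top rate. Warm-season grasses were held at 30/21 °C; cool-season blackgrass and wild buckwheat at 18/13 °C; scoring at about 14 days.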

AMARE (redroot pigweed) = assay: Pre-plant incorporated (PPI) herbicidal activity, warm season; format: in vivo, Amaranthus retroflexus; details: for Percent inhibition AMARE: PPI application
Description: as §3, §1, §2

ECHCG (barnyardgrass) = assay: Pre-emergence herbicidal activity, warm season; format: in vivo, Echinochloa crus-galli; details: GR80 = lowest tested rate (300, 100, 30, 10 g/ha) with 80% or greater inhibition; approx. 14 days after treating; 30/21° C.
Method in brief: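 Seeds sown in sterilised fertilised topsoil received surface-applied compound in 50:50 acetone/water, typically at 300, 100, 30 and 10 g/ha, then greenhouse-grown at 30/21° C (warm-season species) or 18/13° C (cool-season species). Percent inhibition versus untreated plants was scored at about 14 days, giving GR80; an asterisk marks activity short of 80% at the top rate.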

SOLNI (black nightshade) = assay: Pre-plant incorporated (PPI) herbicidal activity, warm season; format: in vivo, Solanum nigrum; details: for Percent inhibition SOLNI: PPI application
Description: as §3, §1, §2

[4] = system: GALAP (catchweed bedstraw); assay: Pre-emergence herbicidal activity, cool season; format: in vivo, Galium aparine; details: lowest tested rate with 80% or greater inhibition; rates 300, 100, 30, 10 g/ha; about 14 days
Method in brief: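 GR80 values derive from percent inhibition relative to untreated plants, read roughly 14 days after sowing and pre-emergence soil-surface treatment (compound in 50:50 acetone/water; rates typically 10, 30, 100, 300 g/ha). Warm-season weeds grew at 30/21° C day/night, cool-season ones at 18/13° C; an asterisk marks activity without reaching 80% at the highest rate.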

[5] = pre-plant incorporated, lowest tested rate with 80% or greater inhibition, about 14 days
[6] = pre-plant incorporated, GR80 = lowest tested rate with 80% or greater inhibition, approx. 14 days after treating, 30/21° C.

CCN(CC)C(=O)n1cnc(S(=O)(=O)C(F)(F)SC)n1 [Example 9]
Percent inhibition TRZAW (wheat (TRZAW); 30 g/ha): 0%
Percent inhibition TRZAW (wheat (TRZAW); 100 g/ha): 0%
Percent inhibition TRZAW (wheat (TRZAW); 300 g/ha): 10%
Percent inhibition TRZAW (wheat (TRZAW); 900 g/ha): 70%
Percent inhibition AGSST ([1]; 30 g/ha): 99%
Percent inhibition AGSST ([1]; 100 g/ha): 100%
Percent inhibition AGSST ([1]; 300 g/ha): 100%
Percent inhibition AGSST ([1]; 900 g/ha): 100%
Percent inhibition PANMI ([2]; 30 g/ha): 60%
Percent inhibition PANMI ([2]; 100 g/ha): 80%
Percent inhibition PANMI ([2]; 300 g/ha): 100%
Percent inhibition PANMI ([2]; 900 g/ha): 100%
Percent inhibition CHEAL ([3]; 30 g/ha): 95%
Percent inhibition CHEAL ([3]; 100 g/ha): 100%
Percent inhibition CHEAL ([3]; 300 g/ha): 100%
Percent inhibition CHEAL ([3]; 900 g/ha): 100%
Percent inhibition SETFA (SETFA (giant foxtail); 30 g/ha): 95%
Percent inhibition SETFA (SETFA (giant foxtail); 100 g/ha): 100%
Percent inhibition SETFA (SETFA (giant foxtail); 300 g/ha): 100%
Percent inhibition SETFA (SETFA (giant foxtail); 900 g/ha): 100%
Pre-emergence activity (GR80) ALOMY (ALOMY (blackgrass)): 300 g/ha
Percent inhibition AMARE (AMARE (redroot pigweed); 30 g/ha): 90%
Percent inhibition AMARE (AMARE (redroot pigweed); 100 g/ha): 100%
Percent inhibition AMARE (AMARE (redroot pigweed); 300 g/ha): 100%
Percent inhibition AMARE (AMARE (redroot pigweed); 900 g/ha): 100%
Pre-emergence activity (GR80) ECHCG (ECHCG (barnyardgrass)): 300 g/ha
Percent inhibition SOLNI (SOLNI (black nightshade); 30 g/ha): 95%
Percent inhibition SOLNI (SOLNI (black nightshade); 100 g/ha): 100%
Percent inhibition SOLNI (SOLNI (black nightshade); 300 g/ha): 100%
Percent inhibition SOLNI (SOLNI (black nightshade); 900 g/ha): 99%
Pre-emergence activity GR80, GALAP [4]: [empty]

CCN(CC)C(=O)n1cnc(S(=O)(=O)C(F)(F)SCC(=O)OC)n1 [Example 11]
Percent inhibition TRZAW (wheat (TRZAW); 10 g/ha): 0%
Percent inhibition TRZAW (wheat (TRZAW); 30 g/ha): 0%
Percent inhibition TRZAW (wheat (TRZAW); 100 g/ha): 0%
Percent inhibition TRZAW (wheat (TRZAW); 300 g/ha): 0%
Percent inhibition TRZAW (wheat (TRZAW); 900 g/ha): 20%
PPI activity GR80, AGSST [1, 5]: 300 g/ha
Percent inhibition AGSST ([1]; 10 g/ha): 60%
Percent inhibition AGSST ([1]; 30 g/ha): 50%
Percent inhibition AGSST ([1]; 100 g/ha): 60%
Percent inhibition AGSST ([1]; 300 g/ha): 90%
Percent inhibition AGSST ([1]; 900 g/ha): 100%
Percent inhibition PANMI ([2]; 30 g/ha): 0%
Percent inhibition PANMI ([2]; 100 g/ha): 20%
Percent inhibition PANMI ([2]; 300 g/ha): 80%
Percent inhibition PANMI ([2]; 900 g/ha): 100%
PPI activity GR80, PANMI [2, 5]: * (activity observed, at least at highest rate, but <80% inhibition)
Percent inhibition CHEAL ([3]; 10 g/ha): 30%
Percent inhibition CHEAL ([3]; 30 g/ha): 60%
Percent inhibition CHEAL ([3]; 100 g/ha): 60%
Percent inhibition CHEAL ([3]; 300 g/ha): 100%
Percent inhibition CHEAL ([3]; 900 g/ha): 100%
PPI activity (GR80) CHEAL [3, 6]: 100 g/ha
Percent inhibition SETFA (SETFA (giant foxtail); 10 g/ha): 0%
Percent inhibition SETFA (SETFA (giant foxtail); 30 g/ha): 0%
Percent inhibition SETFA (SETFA (giant foxtail); 100 g/ha): 90%
Percent inhibition SETFA (SETFA (giant foxtail); 300 g/ha): 60%
Percent inhibition SETFA (SETFA (giant foxtail); 900 g/ha): 100%
PPI activity GR80, SETFA (SETFA (giant foxtail); [5]): 300 g/ha
Pre-emergence activity (GR80) ALOMY (ALOMY (blackgrass)): 300 g/ha
Percent inhibition AMARE (AMARE (redroot pigweed); 10 g/ha): 0%
Percent inhibition AMARE (AMARE (redroot pigweed); 30 g/ha): 90%
Percent inhibition AMARE (AMARE (redroot pigweed); 100 g/ha): 40%
Percent inhibition AMARE (AMARE (redroot pigweed); 300 g/ha): 95%
Percent inhibition AMARE (AMARE (redroot pigweed); 900 g/ha): 100%
PPI activity (GR80) AMARE (AMARE (redroot pigweed); [6]): 100 g/ha
Pre-emergence activity (GR80) ECHCG (ECHCG (barnyardgrass)): * (activity observed, at least at highest rate, but <80% inhibition)
Percent inhibition SOLNI (SOLNI (black nightshade); 10 g/ha): 0%
Percent inhibition SOLNI (SOLNI (black nightshade); 30 g/ha): 0%
Percent inhibition SOLNI (SOLNI (black nightshade); 100 g/ha): 30%
Percent inhibition SOLNI (SOLNI (black nightshade); 300 g/ha): 50%
Percent inhibition SOLNI (SOLNI (black nightshade); 900 g/ha): 100%
PPI activity (GR80) SOLNI (SOLNI (black nightshade); [6]): 300 g/ha
Pre-emergence activity GR80, GALAP [4]: [empty]
